Here are results for 3 compounds from ChEMBL document CHEMBL5321247, “Discovery of NXT-10796, an orally active, intestinally restricted EP4 agonist prodrug for the treatment of inflammatory bowel disease” (Bioorg Med Chem Lett, 2023).

What is called Cmax is the maximum level reached in the sampled fluid or tissue. What is called bioavailability is the share of a dose that reaches the circulation, judged against a reference dose that is usually intravenous. Read a low bioavailability as poor availability.

Data set [1] is described as follows: Drug uptake in BALB/c mouse Feces at 1 mg/kg, po measured at 24 hrs. The format is ADME, organism-based. To be noted: in vivo.
Data set [2] can be described thus: Drug uptake in BALB/c mouse plasma at 1 mg/kg, po or iv. Type of data set: ADME, organism-based. To be noted: in vivo.
Data set [3] is described as follows: Drug uptake in BALB/c mouse Colon at 1 mg/kg, po measured at 24 hrs. The format is ADME, organism-based. To be noted: in vivo.
Data set [4] is described as follows: Cmax in BALB/c mouse plasma at 1 mg/kg, po or iv measured at 24 hrs. Type of data set: ADME, organism-based. Also on record: dose 1 mg/kg, time 24 hrs, route po.
Data set [5] can be described thus: Oral bioavailability in BALB/c mouse at 1 mg/kg measured at 24 hrs. The format is ADME, organism-based. To be noted: in vivo.
A short description of data set [6]: Drug uptake in BALB/c mouse Feces at 1 mg/kg, po. Type of data set: ADME, organism-based. To be noted: in vivo.
Data set [7] can be described thus: Drug uptake in BALB/c mouse Colon at 1 mg/kg, po. The format is ADME, organism-based. The settings on record: in vivo.
Data set [8] relates to Mus musculus. Briefly: In vivo agonist activity at EP4 in po dosed C57BL/6J mouse assessed as increase in renin level in plasma at 10 mg/kg, po measured after 2 hrs. The format is functional, organism-based.
Data set [9] is described as follows: In vivo agonist activity at EP4 in po dosed C57BL/6J mouse assessed as increase in Ccl5 expression in colon administered for 3 days by qPCR analysis. The settings on record: 72 h, dose 1-5 mg/kg, time 3 day. The format is organism-based.

Molecules are shown by their SMILES. Calls of active or inactive are those of the source. No cut-off for these calls is given here.

As to `O=C(CCCCCCN1C(=O)CC[C@@H]1/C=C/[C@@H](O)Cc1ccccc1)NS(=O)(=O)c1ccccc1`, the Drug uptake result was “Active” in data set [1], “Not Active” in data set [2] and “Active” in data set [3].
Consider `O=C(O)CCCCCCN1C(=O)CC[C@@H]1/C=C/[C@@H](O)Cc1ccccc1`, for which the Drug uptake result in data set [1], in data set [6], in data set [3] and in [7] was “Active” each time. Further, the Cmax in [4] is about 0.05 µM. Further, the bioavailability in data set [5] worked out at 3%.
With `O=C(CCCCCCN1C(=O)CC[C@@H]1/C=C/[C@@H](O)Cc1ccccc1)NNC(=O)C(=O)O`, the outcome in data set [8] was inactive. Besides, the Activity entry in data set [9] is listed as “Dose-Dependent Effect”.
